Experimental findings from patent US8680137B2, “Agents and methods for treating ischemic and other diseases” (Nono Inc., priority 2009, dated 2014) are described below.

“Also recorded” adds a separate entry of the source. Where two headings read alike, the source gives them in different places.

Data set [1] concerns retinal ganglion cells (RGCs). The data set is described as follows: OGD in cultured primary retinal ganglion cells, PI fluorescence. Type of data set: cell-based, rat. Particulars: 5 μM, 24 hours after 3 hour OGD. The text has this:
Acute and chronic retinal ischemia are major causes of blindness. Retinal damage from glaucoma, also termed “slow excitotoxicity” afflicts millions of people each year and is the second leading cause of blindness worldwide (after cataracts). Diabetic retinopathy is also very common, afflicting about 40% of diabetics and, while less commonly producing complete blindness, is a leading cause of visual impairment. The retina is an extension of the CNS, and was the first organ in which excitotoxicity was described. This invention discloses TPRM7 antagonists that can inhibit anoxic retinal damage. To examine this, we cultured primary retinal ganglion cells (RGCs) and organotypic whole retinas from neonatal rat pups by standard methods and exposed them to OGD (1 or 3 hours). […] This underscores our earlier discussion that inhibiting TRPM7 is a ubiquitous mechanism for the reduction of ischemic damage.

For data set [2], the system named is MCF-7 breast cancer cells. Description: Cancer cell proliferation, MCF-7. In kind it is cell-based. The following applies: for proliferation: MCF-7, FIG. 80; for Demonstrated Reduction of Proliferation at or below 10 μM Inhibitor concentration: MCF-7, >20% inhibition at 48-96 hours, MTT, SRB, luminescence or BrDU. The procedure: (§1) To determine the breadth of efficacy in cancers, we examined the efficacy of a range of TRPM7 inhibitors for their ability to inhibit cell proliferation in cancer cell lines. Representative figures are included as examples.
(§2) Cells (Table 1) were grown to 70% confluency, trypsinized, counted, and seeded in 96-well flat-bottom plates at a final concentration of 2.5×10^3-5.0×10^3 cells/well in growth media containing 5% FBS (Day 0). Other well sizes and cell densities were used successfully as well. Cells were allowed to incubate in growth media for 24 hours to allow for maximum adhesion. Treatment with the test agent began on Day 1 and continued for 72 hours either with or without retreatment. At the 72 hour time point, viable cell numbers are quantified by the CellTiter-Glo® cell viability assay as described above, or using standard MTT, SRB or BrDU assays. Experiments were repeated at least twice with the same concentrations to determine growth inhibitory activity.
(§3) Data Collection—For the cell proliferation studies, data from each experiment was collected and expressed as % Cell Growth using the following calculation: % Cell Growth=(ftest/fvehicle)×100 Where ftest is the luminescent signal of the tested sample, and fvehicle is the luminescence of the vehicle in which the drug is dissolved (or appropriate measure for the other viability/proliferation measures). Dose response graphs and IC50 values were generated using standard software using the following variable slope equation: […]

For data set [3], the system named is MDA-MB231 breast cancer cells. The data set is described as follows: Cancer cell proliferation, MDA-MB231. Type of data set: cell-based. Particulars: MDA-MB231, FIG. 80. The procedure: as §1, §2
(§4) Data Collection—For the cell proliferation studies, data from each experiment was collected and expressed as % Cell Growth using the following calculation: % Cell Growth=(ftest/fvehicle)×100 Where ftest is the luminescent signal of the tested sample, and fvehicle is the luminescence of the vehicle in which the drug is dissolved (or appropriate measure for the other viability/proliferation measures). […]

The subject of data set [4] is B16F1 melanoma cells. The data set is described as follows: Cancer cell proliferation, B16F1. Particulars: B16F1, FIG. 81. Type of data set: cell-based, mouse. On the procedure: as §1, §2, §4
Data set [5] deals with B16F10 melanoma cells. The data set is described as follows: Cancer cell proliferation, B16F10. In kind it is cell-based, mouse. Particulars: for proliferation: B16F10, FIG. 81; for Demonstrated Reduction of Proliferation at or below 10 μM Inhibitor concentration: B16F10, >20% inhibition at 48-96 hours, MTT, SRB, luminescence or BrDU; for IC50: Mus musculus. On the procedure: as §1, §2, §3

The subject of data set [6] is U2OS osteosarcoma. Description: Cancer cell proliferation, U2OS. In kind it is cell-based. The following applies: >20% inhibition at 48-96 hours, MTT, SRB, luminescence or BrDU. On the procedure:
as §1, §2, §4

Data set [7] relates to DMS53 Lung cancer. Description: Cancer cell proliferation, DMS53. Type of data set: cell-based. The following applies: >20% inhibition at 48-96 hours, MTT, SRB, luminescence or BrDU. On the procedure: as §1, §2, §4
Data set [8] concerns A375 melanoma. The data set is described as follows: Cancer cell proliferation, A375. In kind it is cell-based. The following applies: Homo sapiens. The procedure:
as §1, §2, §3

Data set [9] relates to NIH3T3 fibroblasts. Description: Toxicity on NIH3T3 fibroblast cells, PI uptake after 72 hours. The following applies: concentrations that reduce proliferation of cancerous cells. In kind it is cell-based. The procedure: To differentiate between an anti-proliferative effect of the TRPM7 inhibitors and cellular toxicity, the compounds were added to various ‘non-cancerous’ cell lines at the same concentrations and the percentage of PI uptake was measured after 72 hours.

For data set [10], the system named is voltage-sensitive Na+ currents. Description: Voltage-sensitive Na+ currents in cultured cortical neurons. In kind it is cell-based. The following applies: at concentrations sufficient to inhibit TRPM7. The procedure: (§5) To examine selectivity of a subset of these TRPM7 inhibitors, experiments were performed to determine whether TRPM7 antagonists cross-react with other ionic channels and receptors. […] From a therapeutic perspective, knowledge of cross-reactivity of candidate drugs could shed light on other ischemic mechanisms and raise awareness of potential side effects. M21 has no effect on voltage-sensitive Na+, and Ca2+ currents in cultured cortical neurons […] TRPM7-expressing HEK293 cells, but inhibits K+ currents by about 20% at membrane potentials of −10 mV. M21 had no effect on agonist-induced Ca2+ changes in HEK293 cells transfected with constructs for TRPM2, TRPM4, TRPM6, TRPV1, TRPC2 and TRPA1. M21 also has no effect on NMDA and AMPA receptor currents in cultured neurons. […] Similar experiments were performed with other TRPM7 inhibitors including M5 and M11.

The test system of data set [11] is voltage-sensitive Ca2+ currents. The data set is described as follows: Voltage-sensitive Ca2+ currents in cultured cortical neurons. Type of data set: cell-based. Particulars: at concentrations sufficient to inhibit TRPM7. On the procedure:
as §5

Data set [12] relates to K+ currents. Description: K+ currents in cultured cortical neurons. Type of data set: cell-based. On the procedure:
as §5

In data set [13] the test system is mixed retinal cell cultures. Description: OGD in dissociated mixed rat retinal cultures. Type of data set: cell-based. On the procedure: (§6) The ability of TRPM7 inhibitors to protect other types of cell cultures following exposure to anoxia, including non-neuronal cell cultures, has also been tested. In general, cultures of growing cells are exposed to a 1-6 hour period of anoxia, followed by addition of a TRPM7 at a range of concentrations upon removal from anoxic conditions. […] This implies that TRPM7 inhibitors may be useful both as a treatment for anoxic damage to patients presenting symptoms of a disorder associated with anoxic damage, or as a preventative measure. Such preventative measures can be chronic, such as treatment to protect against damage from heart attacks or strokes, or acute, to be given prior to or during surgical procedures, which may include but not be limited to procedures that involve endovascular invasion and have the possibility of dislodging material that may block blood flow through arteries. […]

Data set [14] has as its target T1, TRPC2 (Mus musculus, UniProt Q9R244).
T1 construct: expressed in transfected cells; host or cells: HEK293
The data set is described as follows: Agonist-induced Ca2+ changes in HEK293 cells transfected with TRPC2. Type of data set: cell-based. On the procedure: as §5

Data set [15] relates to AML12 hepatocytes. Description: Anoxia (OGD) in AML12 hepatocyte cultures. Particulars: 2 hour, 4 hour or 6 hour anoxia. Type of data set: cell-based, mouse. On the procedure:
as §6

Data set [16] relates to formalin-induced pain behaviors. The data set is described as follows: Formalin induced inflammatory pain in rats. In kind it is in vivo, rat. The following applies: i.v. administration, formalin 2.5% 50 μL plantar hindpaw.

One may read the IC50 as the concentration needed to halve the response being measured.

T1 sequence (Q9R244 whole entry, species assumed): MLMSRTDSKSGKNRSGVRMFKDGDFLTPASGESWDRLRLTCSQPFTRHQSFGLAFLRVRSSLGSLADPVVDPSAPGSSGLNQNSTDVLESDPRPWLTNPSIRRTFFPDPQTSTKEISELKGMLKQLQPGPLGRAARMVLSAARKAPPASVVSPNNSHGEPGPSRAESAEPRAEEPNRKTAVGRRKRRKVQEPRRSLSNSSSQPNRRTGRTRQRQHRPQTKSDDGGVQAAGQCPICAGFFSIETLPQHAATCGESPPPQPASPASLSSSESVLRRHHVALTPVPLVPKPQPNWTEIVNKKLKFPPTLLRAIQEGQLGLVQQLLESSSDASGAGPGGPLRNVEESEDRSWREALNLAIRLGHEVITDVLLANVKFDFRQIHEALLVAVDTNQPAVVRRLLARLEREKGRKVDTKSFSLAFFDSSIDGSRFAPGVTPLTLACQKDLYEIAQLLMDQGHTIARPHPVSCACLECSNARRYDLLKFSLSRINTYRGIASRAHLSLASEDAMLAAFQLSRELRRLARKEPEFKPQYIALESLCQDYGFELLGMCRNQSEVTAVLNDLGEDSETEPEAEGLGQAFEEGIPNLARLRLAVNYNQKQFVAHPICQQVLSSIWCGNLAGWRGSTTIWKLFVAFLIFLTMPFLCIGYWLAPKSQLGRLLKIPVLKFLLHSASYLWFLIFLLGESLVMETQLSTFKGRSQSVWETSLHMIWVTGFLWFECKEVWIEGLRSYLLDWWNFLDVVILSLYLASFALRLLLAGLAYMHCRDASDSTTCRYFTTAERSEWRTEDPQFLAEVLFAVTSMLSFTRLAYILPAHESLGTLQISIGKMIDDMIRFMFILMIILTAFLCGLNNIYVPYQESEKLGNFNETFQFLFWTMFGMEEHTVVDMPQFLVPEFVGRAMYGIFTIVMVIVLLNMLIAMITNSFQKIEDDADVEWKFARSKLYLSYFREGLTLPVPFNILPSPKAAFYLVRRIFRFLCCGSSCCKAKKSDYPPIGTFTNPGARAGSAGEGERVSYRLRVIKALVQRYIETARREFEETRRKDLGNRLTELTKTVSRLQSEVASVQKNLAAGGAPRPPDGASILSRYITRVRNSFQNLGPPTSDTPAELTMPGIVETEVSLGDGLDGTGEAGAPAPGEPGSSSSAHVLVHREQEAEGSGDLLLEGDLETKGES

As for `COc1cc2c(cc1OC)C(c1sc3ccccc3c1Cl)=NCC2` [Compound M6], the “cytoprotection after OGD compared with U0126 or NA-1” value in data set [1] is on record as “more protective”. Moreover, the proliferation entry in [2] is recorded as “reduce proliferation”; in data set [3], “reduce proliferation”; in data set [4] it was “reduce the proliferation”; in data set [5], “reduce the proliferation”. Further, the “Demonstrated Reduction of Proliferation at or below 10 μM Inhibitor concentration” value in data set [2] is “MCF-7”; in data set [5], “B16F10 melanoma”; in [6], “U2OS osteosarcoma”; in data set [7], “DMS53 Lung cancer”. Further, the IC50 was 16.5 µM in data set [5] (B16-F10, 72 h, B16-F10, Exp 1, 72 hours, read-out: IC50); 14.3 µM in data set [5] (B16-F10, 72 h, B16-F10, Exp 2, 72 hours, read-out: IC50); 15.6 µM in [5] (B16-F10, B16-F10, mean of Exp 1 and Exp 2, read-out: Mean IC50); 12.6 µM in data set [8] (A-375, 72 h, A375, Exp 1, 72 hours, read-out: IC50); 14.2 µM in [8] (A-375, 72 h, A375, Exp 2, 72 hours, read-out: IC50); 13.4 µM in data set [8] (A-375, A375, mean of Exp 1 and Exp 2, read-out: Mean IC50). The “toxicity (PI uptake)” value in data set [9] was “not toxic; also recorded: do not show toxicity”.

With `O=C(Nc1ccc(F)cc1)C(Sc1ccc(Cl)cc1)c1ccccc1` (centres unmarked) [Compound M11], the “effect on voltage-sensitive Na+ currents” value in [10] is “did not affect”. Moreover, the “effect on voltage-sensitive Ca2+ currents” value in data set [11] is given as “did not affect”. Besides, in data set [12], the “effect on potassium currents” value is “slight inhibition”. For the same compound, the “survival following exposure to OGD” value in data set [13] was “promote survival”. The proliferation result was “reduce proliferation” in [2], “reduce proliferation” in [3], “reduce the proliferation” in data set [4] and “reduce the proliferation” in data set [5]. Further, the “Demonstrated Reduction of Proliferation at or below 10 μM Inhibitor concentration” value is given as “MCF-7” in data set [2], “B16F10 melanoma” in data set [5], “U2OS osteosarcoma” in data set [6] and “DMS53 Lung cancer” in [7]. Further, in data set [9], the “toxicity (PI uptake)” value is “do not show toxicity”.

For the compound `Cc1c(Cc2ccc(Cl)c(Cl)c2)c(=O)oc2cc(O)ccc12` [Compound M21], the “effect on voltage-sensitive Na+ currents” value in [10] was “no effect”. Further, the “effect on voltage-sensitive Ca2+ currents” value in data set [11] is “no effect”. Also, the “inhibition of K+ currents” value in data set [12] (membrane potentials of −10 mV) was “about 20%”. Further, the “effect on agonist-induced Ca2+ changes” value in data set [14] is recorded as “no effect”. In addition, the “survival following exposure to OGD” value in [13] was “promote survival”. In addition, the survival after anoxia entry in [15] was “can promote survival”. For the same compound, the “cytoprotection after OGD compared with U0126 or NA-1” value in data set [1] is listed as “more protective”. Further, in [16], the “formalin-induced phase 1 (0-8 min) flinches” value was “little effect” and the “formalin-induced phase 2 pain (9-60 min) flinches” value is “significantly reduced”.
